Laboratory results reported in US20240390376A1, “METHOD FOR PREVENTING ADVERSE PREGNANCY OUTCOMES DUE TO USE OF SELECTIVE SEROTONIN REUPTAKE INHIBITORS (SSRI) DURING GESTATION” (Wisconsin Alumni Research Foundation, priority 2023, published 2024).
Read-outs that look alike come from different tables or passages of the source.

Key:
[1] = in vivo; cited from earlier work
[2] = cited from earlier work
[3] = system: SERT null mice; test: Ketanserin rescue of neonatal mortality in SERT null mice; format: in vivo; conditions: 49.0% without ketanserin
Method: By performing RNA sequencing of placenta from heterozygous Sert+/− mice vs homozygous Sert−/− knockout mice and their respective offspring, it was confirmed that lack of maternal, but not placental or fetal SERT, is associated with placental changes: more than 2,100 genes were differentially expressed in the placenta when the dam was SERT−/−. Importantly, ketanserin also rescued the neonatal mortality in SERT null mice (49.0 vs 23.8% within 24 hours of birth).

[4] = system: pregnant mice; test: Experiment 2: as experiment 1, all mice received ketanserin one hour before treatment; format: in vivo; conditions: for maternal weight gain / neonatal weight on postnatal day 0 / litter size / overall neonatal mortality: experiment 2; for maternal weight gain / neonatal weight on postnatal day 0: ketanserin 1 mg/kg daily one hour before saline or serotonin; for litter size / overall neonatal mortality: ketanserin 1 mg/kg daily one hour before saline, fluoxetine or serotonin
Method: (§1) To investigate the role of ketanserin, an exemplary serotonin receptors 2A and 2C antagonist, on preventing SSRI-induced adverse pregnancy and neonatal outcomes, pregnant mice were treated with SSRI, serotonin, and SSRI/serotonin+ketanserin.

[5] = system: pregnant mice; test: Number of mouse pups born in control and treatment groups (FIG. 2A); format: in vivo; conditions: serotonin 4 mg/kg, fluoxetine 2 mg/kg, ketanserin 1 mg/kg, vs saline control
[6] = system: pregnant C57Bl/6J mice; conditions: experiment 1; for overall neonatal mortality: control 4.1%
Method: as §1

[7] = system: placenta of mice; test: Placenta immunostaining (Tunel, caspase 3, Ki67) and placental size, embryonic day 18.5 (FIG. 2B); conditions: fluoxetine 20 mg/kg
[8] = system: pregnant mice; conditions: fluoxetine 2 mg/kg and 20 mg/kg vs control; dose-dependent; FIG. 1C
[9] = system: pregnant sheep; conditions: cited from earlier work
[10] = system: pregnant sheep; conditions: in vivo
From the text: FIG. 1G compares lamb birthweights between a treatment group and control group.
FIG. 1G compares the lamb birthweights between the treatment group and control group.

[11] = fluoxetine 2 mg/kg or serotonin 5 mg/kg daily

## CN[C@H]1CC[C@@H](c2ccc(Cl)c(Cl)c2)c2ccccc21 [sertraline]
[1]
  number of pups born: decrease
  pup mortality: increase
[2]; low concentrations in the fetal circulation
  placental transfer: limited placental transfer

## O=C(c1ccc(F)cc1)C1CCN(CCn2c(=O)[nH]c3ccccc3c2=O)CC1 [ketanserin, 3-[2-[4-(4-fluorobenzoyl)piperidin-1-yl]ethyl]-1H-quinazoline-2,4-dione]
[3]
  neonatal mortality within 24 hours of birth: 23.8%
[4]
  maternal weight gain: 11.4 ± 0.5 g
  neonatal weight on postnatal day 0: 1.264 ± 0.01 g
  litter size: 7.0±0.3
  overall neonatal mortality: 8.5%
[4]; summary of the ketanserin studies
  placental changes and adverse pregnancy and neonatal outcomes caused by SSRI use: prevented most placental changes and adverse pregnancy and neonatal outcomes

## NCCc1c[nH]c2ccc(O)cc12 [serotonin, 5-hydroxytryptamine]
[5]
  number of pups born: significantly reduced
[6]; fluoxetine 2 mg/kg or serotonin 5 mg/kg daily, DPC 10.5 until parturition
  maternal weight gain between DPC10.5 and the day before parturition: 8.0 ± 0.8 g
[6]; [11]
  overall neonatal mortality: 32.3%
[6]; fluoxetine 2 mg/kg or serotonin 5 mg/kg daily, control 8.3
  litter size: 5.2±0.5
[6]; serotonin 5 mg/kg daily
  neonatal weight on postnatal day 0: 1.138 ± 0.028 g
  neonatal weight on postnatal day 1: 1.223 ± 0.028 g
[4]
  maternal weight gain: 10.2 ± 0.6 g
  neonatal weight on postnatal day 0: 1.197 ± 0.01 g
  litter size: 7.0±0.5
  overall neonatal mortality: 22.8%

## CNCCC(Oc1ccc(C(F)(F)F)cc1)c1ccccc1 (centres unmarked) [fluoxetine]
[1]
  number of pups born: decrease
  pregnancy rates: decreases
  pup mortality: increase
[7]
  Tunel-positive apoptotic cells in the placenta: visualized
[7]; ketanserin 1 mg/kg
  placental size: much reduced
[5]
  number of pups born: significantly reduced
[8]
  mouse pup mortality: decidedly negative effect
[9]; third trimester pregnant sheep
  blood perfusion to the uterus: rapidly decreased
[9]; treated during the last month of gestation
  placentome growth: decreased placentome growth
[10]; female, sheep
  average gestational length: 147.7 days
[10]
  lamb birthweights: weighed significantly less
  placentome diameter: significantly smaller
[6]; [11]
  overall neonatal mortality: 11.6%
[4]
  litter size: 7.4±0.6
  overall neonatal mortality: 24.3%
[2]; in vivo
  placental transfer: about 70%
